In US6833377B2, “Composition and method for potentiating drugs” (priority 2001, dated 2004):
Values joined by “and” are separate entries in the source; they are usually repeats but may differ in a detail not shown here. Equal values may be shown once. Read-outs that look alike come from different tables or passages of the source.

What was measured:
[1] = test system: rats with MPTP-depression; assay: Porsolt's test, rats with MPTP depression (MPTP 15 mg/kg IM); assay type: in vivo; settings: drug alone
Protocol: (§1) Antidepressive effects was studied by Porsolt's test [Porsolt R. D., Anton G., Blavet N., Jalfre M. Eur. J. Pharmacol.(1978), 47(4):379-91]. For each rat under study, the total immobilization time was determined during 10 min of forced swimming in a glass vessel at a water temperature of 22° C. The animals were subdivided into three groups according to their immobilization time: highly-, medium- and low-active (immobilization time below 80 sec. 100-140 sec and above 150 sec, respectively).
(§2) I. N., Kryzhanovskii G. N. Biull. Eksp. Biol. Med. (1995) 120(8): 160-3] 30 min before testing at a dose of 15 mg/kg. […] (60 min before a repeated examination in Porsolt's test), and also to low-active rats 30 min. before a repeated study in Porsolt's test.
(§3) To determine the degree of potentiation of the effect of antidepressants, their minimal effective dose within the compositions, which caused a maximal antidepressive effect (immobilization time—below 80 s) in low-active rats and in rats with MPTP-depression was determined.

[2] = test system: low-active rats; assay: Porsolt's test, low-active rats; assay type: in vivo; settings: drug alone
Protocol: as §1, §2, §3

[3] = test system: behavioral depression caused by a toxic dose of MPTP; assay: Forced swimming test after a toxic dose of MPTP (30 mg/kg IM); assay type: in vivo, rats
Protocol: In a forced swimming test, the ability of amitriptyline and its compositions to eliminate the effect of toxic doses of MPTP was studied. Single administration of high MPTP doses (30 mg/kg) causes acute suppression of motor activity (akinesis), catalepsy, and muscular rigidity. Antidepressants reduce behavioral depression caused by a single administration of toxic doses of MPTP. The behavioral depression was studied in a forced swimming test of a group of active rats after the administration of a toxic dose of MPTP (30 mg/kg IM). Swimming duration (maximal swimming duration—10 min) and the time of forced immobilization during the first 5 min of swimming (under the condition that swimming duration exceeds 5 min) was estimated in the forced swimming test 30 min after MPTP administration. Drugs were administered IM or IG 30 min before MPTP administration.
To estimate the potentiation of the effects of amitriptyline (its ability to reduce toxic effects of MPTP), the minimal effective dose of amitriptyline in the composition, which increased swimming time up to 9-10 min and reduced immobilization time during the first 5 min of swimming down to 20-30 sec was determined.

[4] = test system: pentylenetetrazole seizures; settings: diazepam alone, pentylenetetrazole 70 mg/kg
Protocol: (§4) For these studies, solutions of the composition of the invention were used, which. were prepared using distilled water immediately before administration. The solutions were administered either orally (IG), by a rigid metal probe into the cardiac section of the stomach at a total amount of 0.8 ml, or intramuscularly (IM) at an amount of 0.2 ml, 30 min before testing.
Anticonvulsive effects of drugs and their compositions was studied on the model of pentetrazole seizures [Parsons C. G . Quack G., Bresink I., Baran L., Przegalinski F., Kostowski. W., Krzascik P., Hartmann. S., Danysz W. Neuropharmacology (1995) 34(10):1239-1258).
To estimate the potentiation of diazepam effect, its minimal effective dose in the composition preventing clonico-tonic and clonic seizures in 80% of rats was determined.

[5] = test system: reflex of tail flicking; assay: Tail-flick test (analgesic effect); assay type: in vivo, rats; settings: IG; drug alone
Protocol: as §4
The analgesic effect of the components was estimated by an extension of the latent period of the reflex of tail flicking in the “tail-flick” test [Woolf C. J., Barret G. D., Mitchel D., Myers R. A. (1977) Eur. J. Pharmacol. 45(3);311-314] and of the reflex of hind leg flicking in the hyperalgesia test [Coderre T. J., Melzack R. Brain Res. (1987) 404(1-2):95-106].
For the “tail-flick” test, hyperalgesic rats were selected (latent period of tail flicking on placing into water with a temperature of 51° C. was 3-4 sec).

[6] = IG, amitriptyline 30 mg/kg, alone or with phenylephrine 0.004 mg/kg
[7] = IM, amitriptyline 30 mg/kg, alone or with phenylephrine 0.002 mg/kg (text b94: 0.003)

## CN(C)CCC=C1c2ccccc2CCc2ccccc21 [Amitriptyline, amitriptyline]
[1]; IG
  Minimal effective dose of the antidepressant causing a maximal antidepressive effect (immobilization time below 80 sec), highly active rats with MPTP depression: 2.5 ± 0.5 mg/kg
[1]; IG, listed as amitriptyline
  Minimal effective dose of the antidepressant causing a maximal antidepressive effect (immobilization time below 80 sec), highly active rats with MPTP depression: 2.5 mg/kg
[1]; IM
  Minimal effective dose of the antidepressant causing a maximal antidepressive effect (immobilization time below 80 sec), highly active rats with MPTP depression: 7.0 ± 0.8 mg/kg
[1]; IM, listed as amitriptyline
  Minimal effective dose of the antidepressant causing a maximal antidepressive effect (immobilization time below 80 sec), highly active rats with MPTP depression: 7.2 mg/kg
[2]; IG
  Minimal effective dose of the antidepressant causing a maximal antidepressive effect (immobilization time below 80 sec), low-active rats: 2.0 ± 0.24 mg/kg
[2]; IG, listed as amitriptyline
  Minimal effective dose of the antidepressant causing a maximal antidepressive effect (immobilization time below 80 sec), low-active rats: 2 mg/kg
[2]; IM
  Minimal effective dose of the antidepressant causing a maximal antidepressive effect (immobilization time below 80 sec), low-active rats: 5.2 ± 0.6 mg/kg
[2]; IM, listed as amitriptyline
  Minimal effective dose of the antidepressant causing a maximal antidepressive effect (immobilization time below 80 sec), low-active rats: 5.0 mg/kg
[3]; [6]
  Duration of forced swimming until drowning 30 min after MPTP 30 mg/kg (maximal recorded time 600 seconds): 340 s and 340 ± 37 s
  Immobilization time during the first 5 minutes of forced swimming, 30 min after MPTP 30 mg/kg: 78 s and 78 ± 8.5 s
[3]; IM, amitriptyline 20 mg/kg
  Duration of forced swimming until drowning 30 min after MPTP 30 mg/kg (maximal recorded time 600 seconds): 220 ± 25 s
[3]; [7]
  Duration of forced swimming until drowning 30 min after MPTP 30 mg/kg (maximal recorded time 600 seconds): 410 s and 410 ± 46 s
  Immobilization time during the first 5 minutes of forced swimming, 30 min after MPTP 30 mg/kg: 61 s and 61 ± 6.3 s

## CN1C(=O)CN=C(c2ccccc2)c2cc(Cl)ccc21 [Diazepam]
[4]; IG
  Minimal dose of diazepam preventing clonico-tonic pentylenetetrazol seizures in 80% of rats: 2.5 mg/kg and 2.5 ± 0.3 mg/kg
[4]; IM
  Minimal dose of diazepam preventing clonico-tonic pentylenetetrazol seizures in 80% of rats: 6.7 mg/kg and 6.7 ± 0.7 mg/kg

## Cc1c(N(C)CS(=O)(=O)[O-])c(=O)n(-c2ccccc2)n1C.[Na+] [Dipyrone]
[5]
  Minimal effective dose of the analgesic causing maximal analgesia in tail-flick test (latent period of tail flicking reflex more than 30 sec): 20 mg/kg and 20 ± 2.3 mg/kg

## CNCCC(Oc1ccc(C(F)(F)F)cc1)c1ccccc1 (stereo not shown) [Fluoxetine]
[1]; IM
  Minimal effective dose of the antidepressant causing a maximal antidepressive effect (immobilization time below 80 sec), highly active rats with MPTP depression: 16.2 mg/kg and 16 ± 2.1 mg/kg
[2]; IG
  Minimal effective dose of the antidepressant causing a maximal antidepressive effect (immobilization time below 80 sec), low-active rats: 5.5 mg/kg and 5.5 ± 0.7 mg/kg
[2]; IM
  Minimal effective dose of the antidepressant causing a maximal antidepressive effect (immobilization time below 80 sec), low-active rats: 10.6 mg/kg and 10.6 ± 1.2 mg/kg
